Experimental data from PMC8470823, “8-Amino-6-Methoxyquinoline—Tetrazole Hybrids: Impact of Linkers on Antiplasmodial Activity” (Molecules, 2021).
Like-named read-outs stand apart in the source and are kept apart here.

Tests used:
P. falciparum NF54 = experiment: In vitro microplate assay against P. falciparum (3H-hypoxanthine incorporation); type: cell-based, Plasmodium falciparum; conditions: for S.I. = IC50 (Cyt.)/IC50 (P.f. NF54): selectivity index: L-6 cells IC50 / P.f. NF54 IC50
Method: Chloroquine (Sigma C6628) was used as standard. Compounds were dissolved in DMSO at 10 mg/mL and added to parasite cultures incubated in RPMI 1640 medium without hypoxanthine, supplemented with HEPES (5.94 g/L), NaHCO3 (2.1 g/L), neomycin (100 U/mL), Albumax (5 g/L) and washed human red cells A^+ at 2.5% hematocrit (0.3% parasitemia). Serial drug dilutions of 11 3-fold dilution steps covering a range from 100 to 0.002 μg/mL were prepared. […] After 48 h, 0.05 mL of ^3H-hypoxanthine (=0.5 μCi) was added to each well of the plate. The plates were incubated for a further 24 h under the same conditions. The plates were then harvested with a Betaplate cell harvester (Wallac, Zurich, Switzerland). The red blood cells were transferred onto a glass fiber filter and washed with distilled water. The dried filters were inserted into a plastic foil with 10 mL of scintillation fluid and counted in a Betaplate liquid scintillation counter (Wallac, Zurich, Switzerland). IC50 values were calculated from sigmoidal inhibition curves by linear regression using Microsoft Excel. Artemisinin and chloroquine were used as control.

[1] = In vitro cytotoxicity with L-6 cells (Alamar Blue); type: cell-based, rat
Method: (§1) Serial drug dilutions of 11 3-fold dilution steps covering a range from 100 to 0.002 μg/mL were prepared. After 70 h of incubation, the plates were inspected under an inverted microscope to assure the growth of the controls and sterile conditions. Then, 0.01 mL of Alamar Blue was added to each well and the plates incubated for another 2 h. The plates were read with a Spectramax Gemini XS microplate fluorometer (Molecular Devices Cooperation, Sunnyvale, CA, USA) using an excitation wavelength of 536 nm and an emission wavelength of 588 nm. The IC50 values were calculated by linear regression from the sigmoidal dose inhibition curves using SoftmaxPro software (Molecular Devices Cooperation, Sunnyvale, CA, USA). Podophyllotoxin (Sigma P4405) was used as control.

L-6 cells = experiment: In vitro cytotoxicity with L-6 cells (Alamar Blue); type: cell-based, rat
Method: as §1

[2] = rat skeletal myoblasts, average of four determinations, read-out: Cytotoxicity L-6 Cells IC50
[3] = Plasmodium falciparum, chloroquine-sensitive strain NF54, erythrocytic stages, average of four determinations, read-out: P.f. NF54 IC50
[4] = rat, Cytotoxicity L-6 Cells IC50

Compound	S.I. = IC50 (Cyt.)/IC50 (P.f. NF54) (P. falciparum NF54)	IC50 (P. falciparum NF54; [3]) [µM]	IC50 at 72 h [1, 4] [µM]	other results
CCN(CC)CCCC(C)Nc1ccnc2cc(Cl)ccc12 (stereo not drawn) [CQ, chloroquine, reference compound]	23,313			IC50 (P. falciparum NF54; Plasmodium falciparum, NF54, read-out: P.f. NF54 IC50): 0.0039 µM; IC50 at 72 h [1, 2]: 90.9 µM
CCC(NCCNc1cc(OC)cc2cccnc12)c1nnnn1C(C)(C)C (stereo not drawn) [Compound 7, N^1-(6-Methoxyquinolin-8-yl)-N^2-(1-(tert-butyl-1H-tetrazol-5-yl)propyl)ethan-1,2-diamine]		16	144	
COc1cc(NCCNC(c2ccccc2)c2nnnn2C(C)(C)C)c2ncccc2c1 (stereo not drawn) [Compound 8, N^1-(6-Methoxyquinolin-8-yl)-N^2-((phenyl)(tert-butyl-1H-tetrazol-5-yl)methyl)ethan-1,2-diamine]	9.52	6.09	58	
COc1cc(NCCNC(c2ccc(F)cc2)c2nnnn2C(C)(C)C)c2ncccc2c1 (stereo not drawn) [Compound 9, N^1-((4-Fluorophenyl)(tert-butyl-1H-tetrazol-5-yl)methyl)-N^2-(6-methoxyquinolin-8-yl)ethan-1,2-diamine]	7.86	7.05	55.4	
COc1cc(NCCNC(c2ccc(Cl)cc2)c2nnnn2C(C)(C)C)c2ncccc2c1 (stereo not drawn) [Compound 10, N^1-((4-Chlorophenyl)(tert-butyl-1H-tetrazol-5-yl)methyl)-N^2-(6-methoxyquinolin-8-yl)ethan-1,2-diamine]	17.29	5.34	92.3	
COc1cc(NCCNC(c2ccc(Br)cc2)c2nnnn2C(C)(C)C)c2ncccc2c1 (stereo not drawn) [Compound 11, N^1-((4-Bromophenyl)(tert-butyl-1H-tetrazol-5-yl)methyl)-N^2-(6-methoxyquinolin-8-yl)ethan-1,2-diamine]	13.57	2.51	34.1	
CCC(Nc1cc(OC)cc2cccnc12)c1nnnn1C(C)(C)C (stereo not drawn) [Compound 13, 6-Methoxy-N-(1-(1-tert-butyl-1H-tetrazol-5-yl)propyl)quinolin-8-amine]	3.86	23.6	91.1	
COc1cc(NC(c2ccccc2)c2nnnn2C(C)(C)C)c2ncccc2c1 (stereo not drawn) [Compound 14, 6-Methoxy-N-((phenyl)(1-tert-butyl-1H-tetrazol-5-yl)methyl)quinolin-8-amine]	9.56	5.12	49	
COc1cc(NC(c2ccc(F)cc2)c2nnnn2C(C)(C)C)c2ncccc2c1 (stereo not drawn) [Compound 15, N-((4-Fluorophenyl)(1-tert-butyl-1H-tetrazol-5-yl)methyl)-6-methoxyquinolin-8-amine]		2.68	119 to 124	IC50 (L-6 cells; rat, 72 h): 124 µM
COc1cc(NC(c2ccc(Cl)cc2)c2nnnn2C(C)(C)C)c2ncccc2c1 (stereo not drawn) [Compound 16, N-((4-Chlorophenyl)(1-tert-butyl-1H-tetrazol-5-yl)methyl)-6-methoxyquinolin-8-amine]	318.3	0.743	236	
COc1cc(NC(c2ccc(Br)cc2)c2nnnn2C(C)(C)C)c2ncccc2c1 (stereo not drawn) [Compound 17, N-((4-Bromophenyl)(1-tert-butyl-1H-tetrazol-5-yl)methyl)-6-methoxyquinolin-8-amine]	208.8	0.464	96.9	
COc1cc(NC(c2ccc(C(F)(F)F)cc2)c2nnnn2C(C)(C)C)c2ncccc2c1 (stereo not drawn) [Compound 18, 6-Methoxy-N-((1-tert-butyl-1H-tetrazol-5-yl)(4-(trifluoromethyl)phenyl)methyl)quinolin-8-amine]	273.3	0.644	176	
COc1cc(NC(c2ccc(C)cc2)c2nnnn2C(C)(C)C)c2ncccc2c1 (stereo not drawn) [Compound 19, 6-Methoxy-N-((4-methylphenyl)(1-tert-butyl-1H-tetrazol-5-yl)methyl)quinolin-8-amine]	238.9	1.04	248	
COc1cc(NC(c2ccc(C(C)C)cc2)c2nnnn2C(C)(C)C)c2ncccc2c1 (stereo not drawn) [Compound 20, 6-Methoxy-N-((4-(propan-2-yl)phenyl)(1-tert-butyl-1H-tetrazol-5-yl)methyl)quinolin-8-amine]		2	119 to 124	IC50 (L-6 cells; rat, 72 h): 119 µM
COc1cc(NC(c2cccc3ccccc23)c2nnnn2C(C)(C)C)c2ncccc2c1 (stereo not drawn) [Compound 21, 6-Methoxy-N-((naphthalen-1-yl)(1-tert-butyl-1H-tetrazol-5-yl)methyl)quinolin-8-amine]	137.6	1.26	173	
CCCCCCCC(Nc1cc(OC)cc2cccnc12)c1nnnn1C(C)(C)C (stereo not drawn) [Compound 22, 6-Methoxy-N-(1-(1-tert-butyl-1H-tetrazol-5-yl)octyl)quinolin-8-amine]	168.9	0.324	54.7	
COc1cc([C@@H]2c3cc4c(cc3[C@H](O)[C@H]3COC(=O)[C@H]23)OCO4)cc(OC)c1OC [POD, podophyllotoxin, reference compound]				IC50 (L-6 cells; [2]): 0.012 µM
N^1-(6-Methoxyquinolin-8-yl)-N^2-((tert-butyl-1H-tetrazol-5-yl)(2-(trifluoromethyl)phenyl) methyl)-ethan-1,2-diamine [Compound 12]	7.64			IC50 (P. falciparum NF54; chloroquine-sensitive strain NF54, erythrocytic stages, average of four determinations, read-out: P.f. NF54 IC50): 2.92 µM; IC50 (L-6 cells): 22.3 µM
